Test results published in patent publication US20200377459A1, “CHARGED ION CHANNEL BLOCKERS AND METHODS FOR USE” (President and Fellows of Harvard College, priority 2015, published 2020).
“Also recorded” adds a separate entry of the source.

Assays:
human Nav1.7 channels = target: T1, human Nav1.7 channels (Homo sapiens, UniProt Q15858); assay: Whole-cell patch clamp, use-dependent block of sodium current, drug applied intracellularly or externally; assay type: cell-based
T1 construct: expressed in transfected cells
T1 sequence (Q15858 whole entry): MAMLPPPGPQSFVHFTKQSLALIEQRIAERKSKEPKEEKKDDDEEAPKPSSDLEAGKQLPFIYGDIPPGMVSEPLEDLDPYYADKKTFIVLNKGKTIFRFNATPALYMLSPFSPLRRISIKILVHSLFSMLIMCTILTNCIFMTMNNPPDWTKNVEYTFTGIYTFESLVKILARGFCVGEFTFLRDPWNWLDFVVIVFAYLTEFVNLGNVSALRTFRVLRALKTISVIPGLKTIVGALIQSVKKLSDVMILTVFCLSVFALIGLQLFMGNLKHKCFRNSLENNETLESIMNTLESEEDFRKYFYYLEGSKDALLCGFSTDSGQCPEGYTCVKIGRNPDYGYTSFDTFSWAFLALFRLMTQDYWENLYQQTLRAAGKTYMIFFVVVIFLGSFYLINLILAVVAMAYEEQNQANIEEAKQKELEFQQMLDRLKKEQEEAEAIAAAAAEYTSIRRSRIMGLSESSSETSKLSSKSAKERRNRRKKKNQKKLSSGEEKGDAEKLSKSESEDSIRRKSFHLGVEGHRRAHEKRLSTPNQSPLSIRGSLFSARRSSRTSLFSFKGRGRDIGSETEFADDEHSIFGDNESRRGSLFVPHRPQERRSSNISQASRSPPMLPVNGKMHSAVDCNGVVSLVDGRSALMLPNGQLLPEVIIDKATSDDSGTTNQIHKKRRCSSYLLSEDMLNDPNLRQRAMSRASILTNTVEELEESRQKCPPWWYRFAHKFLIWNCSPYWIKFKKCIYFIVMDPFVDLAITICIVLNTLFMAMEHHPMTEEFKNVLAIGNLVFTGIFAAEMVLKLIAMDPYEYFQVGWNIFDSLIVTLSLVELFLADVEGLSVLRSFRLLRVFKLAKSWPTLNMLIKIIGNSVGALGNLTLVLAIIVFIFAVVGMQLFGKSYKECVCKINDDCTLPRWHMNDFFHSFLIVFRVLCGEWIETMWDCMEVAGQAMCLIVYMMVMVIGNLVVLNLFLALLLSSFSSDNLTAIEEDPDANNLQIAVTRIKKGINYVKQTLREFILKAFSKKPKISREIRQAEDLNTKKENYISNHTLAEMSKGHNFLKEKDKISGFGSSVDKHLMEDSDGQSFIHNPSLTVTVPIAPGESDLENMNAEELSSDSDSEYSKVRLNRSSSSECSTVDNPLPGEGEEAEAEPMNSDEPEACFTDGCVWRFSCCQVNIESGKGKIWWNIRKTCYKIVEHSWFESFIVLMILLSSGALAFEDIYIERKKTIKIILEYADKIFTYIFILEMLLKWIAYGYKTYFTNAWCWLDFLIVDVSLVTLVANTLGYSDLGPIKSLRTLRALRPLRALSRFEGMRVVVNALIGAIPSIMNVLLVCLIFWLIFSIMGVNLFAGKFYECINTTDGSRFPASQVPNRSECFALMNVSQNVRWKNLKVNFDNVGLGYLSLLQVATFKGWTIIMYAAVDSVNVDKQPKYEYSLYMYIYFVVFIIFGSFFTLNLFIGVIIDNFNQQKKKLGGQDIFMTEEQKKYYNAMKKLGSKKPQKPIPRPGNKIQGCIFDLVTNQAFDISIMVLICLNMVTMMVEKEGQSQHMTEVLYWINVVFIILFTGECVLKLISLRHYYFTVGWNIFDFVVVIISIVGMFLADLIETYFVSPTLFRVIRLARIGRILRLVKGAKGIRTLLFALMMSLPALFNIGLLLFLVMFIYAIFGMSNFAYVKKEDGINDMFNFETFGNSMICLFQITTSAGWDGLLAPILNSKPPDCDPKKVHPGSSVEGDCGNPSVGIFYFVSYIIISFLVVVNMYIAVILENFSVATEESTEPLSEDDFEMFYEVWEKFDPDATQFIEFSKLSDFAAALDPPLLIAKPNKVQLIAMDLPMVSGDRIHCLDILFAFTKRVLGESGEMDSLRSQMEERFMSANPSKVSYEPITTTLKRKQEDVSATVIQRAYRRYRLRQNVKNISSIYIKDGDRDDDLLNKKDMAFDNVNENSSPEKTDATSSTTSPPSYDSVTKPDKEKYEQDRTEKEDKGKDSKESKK
Description: Whole-cell recordings were made of currents carried by voltage-activated channels in HEK293 cells stably expressing human Nav1.7 channels. Recordings were made using patch pipettes with resistances of 2-3.5 MQ when filled with internal solution, consisting of 61 mM CsF, 61 mM CsCl, 9 mM NaCl, 1.8 mM MgCl2, 9 mM EGTA, 14 mM creatine phosphate (tris salt), 4 mM MgATP, and 0.3 mM GTP (tris salt), 9 mM HEPES, pH adjusted to 7.2 with CsOH. The shank of the electrode was wrapped with Parafilm in order to reduce capacitance and allow optimal series resistance compensation without oscillation. Seals were obtained and the whole-cell configuration established with cells in Tyrode's solution (155 mM NaCl, 3.5 mM KCl, 1.5 mM CaCl2), 1 mM MgCl2, 10 mM HEPES, 10 mM glucose, pH adjusted to 7.4 with NaOH) with 10 mM TEACl. To ensure complete dialysis with pipette solution, recordings began after 5 to 10 min after establishment of the whole-cell configuration.
Currents were recorded at room temperature (21-23° C.) with an Axopatch 200 amplifier and filtered at 5 kHz with a low-pass Bessel filter. The amplifier was tuned for partial compensation of series resistance (typically 70-80% of a total series resistance of 4-10 MO). Currents were digitized using a Digidata 1322A data acquisition interface controlled by pClamp9.2 software (Axon Instruments) and analyzed using programs written in Igor Pro 4.0 (Wavemetrics, Lake Oswego, Oreg.). Currents were corrected for linear capacitative and leak currents determined using 5 mV hyperpolarizations delivered from the resting potential (usually −80 or −100 mV) and then appropriately scaled and subtracted.
Sodium currents were evoked by 30-msec depolarizations from −100 mV to −20 mV. To assay use-dependent block, pulses were delivered at series of increasing rates: 0.05 Hz for 1-min, 0.33 Hz for 1-min, 1 Hz for 1-min, 3 Hz for 1-min, 5 Hz for 30 seconds, 10 Hz for 30 seconds, with 1 minute rest between each series of pulses. After the series of pulses to induce use-dependent block, the time course of recovery was followed using pulses delivered at 01. Hz (2-min) and 0.05 Hz (1-min).
To induce use-dependent block, the depolarizations were delivered by series of increasing rates: 0.05 Hz for 1-min, 0.33 Hz for 1-min, 1 Hz for 1-min, 3 Hz for 1-min, 5 Hz for 30 seconds, 10 Hz for 30 seconds, with 1 minute rest between each series of pulses. After the series of pulses to induce use-dependent block, the time course of recovery was followed using pulses delivered at 01. Hz (2-min) and 0.05 Hz (1-min). Peak sodium current was plotted as a function of experimental time (1-min per division on the time axis).

[1] = system: CFA-induced thermal hyperalgesia; assay: CFA-induced thermal hyperalgesia (Hargreaves radiant heat, hind paw); assay type: in vivo; conditions: mice, intraplantar co-injection with CFA, 1%
Description: FIGS. 2A-2D show reversal of CFA-induced thermal hyperalgesia by charged sodium channel blockers. FIGS. 2A and 2C show time course (0, 1, 6, and 24 hours) of changes in thermal nociceptive sensitivity measured as response latency (seconds) to a constant radiant heat source applied to the plantar surface of hind paw in mice co-treated with 20 μL (injected in the left hindpaw) of CFA (50% emulsion) and saline, and when the CFA was co-applied with QX-314 (1%, hollow square), N-ethyl etidocaine (Compound 21, 1%; dark square), or ACS8180-3B (Compound 3, 1%; solid triangle). FIGS. 2B and 2D show the nociceptive heat pain response time before CFA treatment and after treatment with the different compounds 1 hour post CFA injection. The data are means±SEM of 8-16 mice per group. The statistical comparison with pre-CFA (*) and with CFA+Vehicle (+) is indicated by +P<0.05; ++P<0.01 and +++,*** P<0.001. All procedures were approved by the Institutional Animal Care and Use Committees. Mice and rats were housed in standard environmental conditions (12-h light/dark cycle; 23° C.; food and water ad libitum) at facilities accredited by the Association for Assessment and Accreditation of Laboratory Animal Care. 8-week old male BALB/c (stock number: 001026) and C57BL/6J (stock number 000664) mice were purchased from Jackson Laboratory and respectively used in allergic airway inflammation (FIG. 5) and pain hypersensitivity model (FIGS. 2A-2D). 6-week old male Sprague-Dawley (stock number: 400) rats, 150±25 grams, were purchased from Charles River laboratory and used to assess pain hypersensitivity (FIG. 3). The compounds were injected in the plantar surface of each animal's right hind paw in 10 μl (mice) or 50 μl (rats) volume of 1:1 emulsion of Complete Freund's Adjuvant (CFA). […] On the 4th day, their thermal nociceptive threshold was evaluated. […] Impact of treatment was analyzed 1 h prior and 1, 3, 6 and 24 h post-treatment. […] With each reading the apparatus was set with a cut-off time of 32 s.

inhibition at 100 µM (human Nav1.7 channels) [%] | Compound | reversal of CFA-induced thermal hyperalgesia [1] | use dependent accumulation of block (human Nav1.7 channels; 100 micromolar inside cell, stimulation frequencies from 1 to 10 Hz)
97 | CCC[N+](CC)(CC)C(CC)C(=O)Nc1c(C)cccc1C (stereo not shown) [Compound 21, N-ethyl etidocaine] | reversed; also recorded: potent blockade | –
– | CC[N+](CC)(CC)CC(=O)Nc1c(C)cccc1C [QX-314, reference compound] | reversed | strong use dependent accumulation of block
